Results: the supplement of paper PMC11003180

Legend:
Experiment in all cases: drug sensitivity score (DSS) from 5-dose viability curve (DSS (area-based score, 0 = no response)); higher = more sensitive (stronger viability inhibition); extreme values may be limits of the assay
[1] = system: MDCK wild-type - doxycycline; conditions: doxycycline: none; 72 h
Summary of the method: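 For 72 h at 37 °C, parental MDCK cells (no doxycycline, 2000 cells/well) were incubated on 384-well plates pre-spotted with 528 oncology drugs at five doses from 1 to 10,000 nM. CellTiter-Glo luminescence served as the viability readout, scaled per plate between vehicle and positive controls. The Breeze pipeline then fitted dose-response curves to yield drug sensitivity scores.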

[2] = system: MDCK p60AmotL2-inducible + doxycycline (p60AmotL2 expressing); conditions: doxycycline: 10 ng/mL; 72 h
Summary of the method: (§1)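 Two MDCK lines, parental and doxycycline-inducible, received doxycycline at 10 ng/mL in the medium before being plated at 2000 cells/well onto a pre-spotted 384-well oncology library of 528 drugs at five doses (1-10,000 nM). Incubation lasted 72 h at 37 °C. Viability was read by CellTiter-Glo luminescence, scaled per plate between vehicle and positive controls, and converted to drug sensitivity scores through Breeze curve fitting.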

[3] = system: MDCK wild-type + doxycycline; conditions: doxycycline: 10 ng/mL; 72 h
Summary of the method: as §1

Q: Which results are given for `Cc1cc(Nc2ncc(Cl)c(Nc3ccccc3S(=O)(=O)C(C)C)n2)c(OC(C)C)cc1C1CCNCC1` [Ceritinib]?
A: drug sensitivity score [1]: 0; drug sensitivity score [2]: 0; drug sensitivity score [3]: 0.6

Q: Which results are given for `O=C(NOCCO)c1ccc2cncn2c1Nc1ccc(I)cc1F` [GDC-0623]?
A: drug sensitivity score [1]: 1.4; drug sensitivity score [2]: 0.3; drug sensitivity score [3]: 0

Q: With `C=CC(=O)N1CC/C(=C\c2ccc(F)c([N+](=O)[O-])c2)C(=O)/C(=C/c2ccc(F)c([N+](=O)[O-])c2)C1` [VLX1570] as the molecule, how does the drug sensitivity score [1] read?
A: 15.5

Q: What about the drug sensitivity score [2] of the same molecule?
A: 17.2

Q: And the drug sensitivity score [3]?
A: 17.3

Q: Which results are given for `O=C(c1ccc(OCCN2CCCCC2)cc1)c1c(-c2ccc(O)cc2)sc2cc(O)ccc12` [Raloxifene]?
A: drug sensitivity score [1]: 5.2; drug sensitivity score [2]: 6.1; drug sensitivity score [3]: 5.2

Q: What does the source list for `CC(C)(C)NC(=O)[C@H]1CC[C@H]2[C@@H]3CC[C@H]4NC(=O)C=C[C@]4(C)[C@H]3CC[C@]12C` [Finasteride]?
A: drug sensitivity score [1]: 0; drug sensitivity score [2]: 0; drug sensitivity score [3]: 0

Q: What does the source list for `CN[C@@H](C)C(=O)N[C@H]1CN(C(=O)CC(C)C)CC[C@H]2CC[C@@H](C(=O)NC(c3ccccc3)c3ccccc3)N2C1=O` [AT-406]?
A: drug sensitivity score [1]: 0; drug sensitivity score [2]: 0; drug sensitivity score [3]: 0.1

Q: What does the source list for `CC(=O)c1cnc2ccc(-c3cc(Cl)c(O)c(Cl)c3)nc2c1N[C@H]1CC[C@H](CN(C)C)CC1` [OTS167]?
A: drug sensitivity score [1]: 17.2; drug sensitivity score [2]: 18.8; drug sensitivity score [3]: 19.4

Q: With `CNC(=O)c1ccc(N2C(=S)N(c3ccc(C#N)c(C(F)(F)F)c3)C(=O)C2(C)C)cc1F` [Enzalutamide] as the molecule, how does the drug sensitivity score [1] read?
A: 0

Q: And the drug sensitivity score [2]?
A: 0

Q: And the drug sensitivity score [3]?
A: 0

Q: `CC(=O)N(O)CCCCCNC(=O)CCC(=O)N(O)CCCCCNC(=O)CCC(=O)N(O)CCCCCN` [Deferoxamine] was tested. Which drug sensitivity score [1] did it give?
A: 3.3

Q: And the drug sensitivity score [2]?
A: 5.1

Q: What about the drug sensitivity score [3] of the same molecule?
A: 3.9

Q: With `Cc1ncc(Cl)cc1NCc1ccc(C(=O)N[C@@H](CC2CCCC2)C(=O)NC2CC2)s1` as the molecule, how does the drug sensitivity score [1] read?
A: 0

Q: And the drug sensitivity score [2]?
A: 0

Q: What about the drug sensitivity score [3] of the same molecule?
A: 0

Q: With `CCN(CC)CCNC(=O)c1c(C)[nH]c(/C=C2\C(=O)Nc3ccc(F)cc32)c1C` [Sunitinib] as the molecule, how does the drug sensitivity score [1] read?
A: 0

Q: What about the drug sensitivity score [2] of the same molecule?
A: 1.2

Q: And the drug sensitivity score [3]?
A: 0

Q: How did the drug sensitivity score [1] turn out when `CC/C(=C(\c1ccc(O)cc1)c1ccc(OCCN(C)C)cc1)c1ccccc1` [4-hydroxytamoxifen] was run?
A: 1.2

Q: What about the drug sensitivity score [2] of the same molecule?
A: 5.7

Q: What about the drug sensitivity score [3] of the same molecule?
A: 4.3

Q: Which results are given for `C[C@@]1(C(=O)Nc2ccc(F)nc2)CCCN1c1nc(Nc2cc(C3CC3)n[nH]2)c2cccn2n1`?
A: drug sensitivity score [1]: 0; drug sensitivity score [2]: 12.6; drug sensitivity score [3]: 8.5

Q: Which drug sensitivity score [1] does the source give for `CCn1c(C(=O)N(C2CC2)C2CC2)cc2c3c(ncn3C)c(Nc3cc(C)n(C)n3)nc21` here?
A: 0

Q: And the drug sensitivity score [2]?
A: 0

Q: And the drug sensitivity score [3]?
A: 0

Q: `CNC(=O)c1ccc2cc([C@@]3(O)CCn4cncc43)ccc2c1` [Orteronel] was tested. Which drug sensitivity score [1] did it give?
A: 0

Q: And the drug sensitivity score [2]?
A: 0

Q: What about the drug sensitivity score [3] of the same molecule?
A: 0

Q: With `CC1(C)C(C(=O)Nc2ccc(S(=O)(=O)c3ccc(NC(=O)C4C(C)(C)C4(C)C)cc3)cc2)C1(C)C` [BRD7116] as the molecule, how does the drug sensitivity score [1] read?
A: 0

Q: What about the drug sensitivity score [2] of the same molecule?
A: 0

Q: And the drug sensitivity score [3]?
A: 0

Q: Which results are given for `Cc1cnc(NC(=O)Nc2cc(Br)c(C)cc2OC[C@@H]2CNCCO2)cn1` [Rabusertib]?
A: drug sensitivity score [1]: 0; drug sensitivity score [2]: 0; drug sensitivity score [3]: 0

Q: Which results are given for `CC(C)n1nc(-c2ccc3oc(N)nc3c2)c2c(N)ncnc21` [Sapanisertib]?
A: drug sensitivity score [1]: 8.1; drug sensitivity score [2]: 13.4; drug sensitivity score [3]: 9.8

Q: What does the source list for `Cn1cc(C[C@@H](N)C(=O)O)c2ccccc21` [1-methyl-D-tryptophan]?
A: drug sensitivity score [1]: 0; drug sensitivity score [2]: 0; drug sensitivity score [3]: 0

Q: How did the drug sensitivity score [1] turn out when `O=C(O)c1ccc(CN2CCC(CN[C@@H]3C[C@H]3c3ccccc3)CC2)cc1` was run?
A: 0

Q: And the drug sensitivity score [2]?
A: 0

Q: And the drug sensitivity score [3]?
A: 0

Q: How did the drug sensitivity score [1] turn out when `CC(C)[C@H](C(=O)Nc1ccc(C(=O)NO)cc1)c1ccccc1` [AR-42] was run?
A: 10.4

Q: What about the drug sensitivity score [2] of the same molecule?
A: 14

Q: And the drug sensitivity score [3]?
A: 12.4

Q: How did the drug sensitivity score [1] turn out when `CNC(=O)c1cc(Oc2ccc(NC(=O)Nc3ccc(Cl)c(C(F)(F)F)c3)c(F)c2)ccn1` [Regorafenib] was run?
A: 3.2

Q: And the drug sensitivity score [2]?
A: 5.6

Q: And the drug sensitivity score [3]?
A: 3.2

Q: With `O=C(O)c1ccc(O)c2ncccc12` [IOX-1] as the molecule, how does the drug sensitivity score [1] read?
A: 1.4

Q: And the drug sensitivity score [2]?
A: 1.7

Q: And the drug sensitivity score [3]?
A: 1.6

Q: `CCC1(c2ccc(N)cc2)CCC(=O)NC1=O` (stereo unspecified) [Aminoglutethimide] was tested. Which drug sensitivity score [1] did it give?
A: 0

Q: And the drug sensitivity score [2]?
A: 0

Q: And the drug sensitivity score [3]?
A: 0

Q: For `CC(C)c1cc(-c2n[nH]c(=O)n2-c2ccc3c(ccn3C)c2)c(O)cc1O` [Ganetespib], which drug sensitivity score [1] is on record?
A: 16.7

Q: What about the drug sensitivity score [2] of the same molecule?
A: 19.3

Q: What about the drug sensitivity score [3] of the same molecule?
A: 17.4

Q: What does the source list for `Cc1cccc(CC(=O)N2CCc3c2ccc(-c2cn(C)c4ncnc(N)c24)c3F)n1`?
A: drug sensitivity score [1]: 0; drug sensitivity score [2]: 0; drug sensitivity score [3]: 0

Q: What does the source list for `O=c1sn(-c2cccc3ccccc23)c(=O)n1Cc1ccccc1` [Tideglusib]?
A: drug sensitivity score [1]: 0; drug sensitivity score [2]: 0; drug sensitivity score [3]: 0

Q: Which drug sensitivity score [1] does the source give for `COc1cc(Nc2ncc3c(n2)-c2ccc(Cl)cc2C(c2c(F)cccc2OC)=NC3)ccc1C(=O)O` [Alisertib] here?
A: 0

Q: And the drug sensitivity score [2]?
A: 10.6

Q: What about the drug sensitivity score [3] of the same molecule?
A: 0

Q: For `CCCc1cc(C)[nH]c(=O)c1CNC(=O)c1cc(-c2ccnc(N3CCN(C)CC3)c2)cc2c1cnn2C(C)C` [GSK343], which drug sensitivity score [1] is on record?
A: 0

Q: And the drug sensitivity score [2]?
A: 0

Q: And the drug sensitivity score [3]?
A: 0

Q: For `O=C(Nc1ccncc1)C(=O)c1cn(Cc2ccc(Cl)cc2)c2ccccc12` [Indibulin], which drug sensitivity score [1] is on record?
A: 7.2

Q: And the drug sensitivity score [2]?
A: 10.7

Q: And the drug sensitivity score [3]?
A: 0

Q: What does the source list for `CCOC(=O)CCNc1cc(N2CCc3ccccc3CC2)nc(-c2ccccn2)n1` [GSK-J4]?
A: drug sensitivity score [1]: 13.7; drug sensitivity score [2]: 3.9; drug sensitivity score [3]: 3.8

Q: With `COc1cc(Nc2ncc(F)c(Nc3ccc4c(n3)NC(=O)C(C)(C)O4)n2)cc(OC)c1OC` [Tamatinib] as the molecule, how does the drug sensitivity score [1] read?
A: 0

Q: And the drug sensitivity score [2]?
A: 1.6

Q: And the drug sensitivity score [3]?
A: 0

Q: How did the drug sensitivity score [1] turn out when `c1cn2cc(-c3ccc4cn[nH]c4c3)nc(Nc3ccc(N4CCOCC4)cc3)c2n1` [Entospletinib] was run?
A: 0

Q: What about the drug sensitivity score [2] of the same molecule?
A: 0

Q: And the drug sensitivity score [3]?
A: 0

Q: For `C/C=C1\NC(=O)[C@H]2CSSCC/C=C/[C@H](CC(=O)N[C@H](C(C)C)C(=O)N2)OC(=O)[C@H](C(C)C)NC1=O` [Romidepsin], which drug sensitivity score [1] is on record?
A: 18.1

Q: What about the drug sensitivity score [2] of the same molecule?
A: 24.9

Q: And the drug sensitivity score [3]?
A: 19.7

Q: Which results are given for `O=C(/C=C/c1cccnc1)NCCCCC1CCN(C(=O)c2ccccc2)CC1` [Daporinad]?
A: drug sensitivity score [1]: 29.3; drug sensitivity score [2]: 29.3; drug sensitivity score [3]: 29.1

Q: `CC[C@H](CO)Nc1nc(NCc2ccccc2)c2ncn(C(C)C)c2n1` [Seliciclib] was tested. Which drug sensitivity score [1] did it give?
A: 0

Q: What about the drug sensitivity score [2] of the same molecule?
A: 2.4

Q: What about the drug sensitivity score [3] of the same molecule?
A: 1.2

Q: Which results are given for `Cc1sc2c(c1C)C(c1ccc(Cl)cc1)=N[C@@H](CC(=O)Nc1ccc(OCCOCCOCCOCCNc3cccc4c3C(=O)N(C3CCC(=O)NC3=O)C4=O)cc1)c1nnc(C)n1-2` (stereo partly specified) [ARV-825]?
A: drug sensitivity score [1]: 5.5; drug sensitivity score [2]: 11.2; drug sensitivity score [3]: 7.3

Q: Which drug sensitivity score [1] does the source give for `COc1cc(C)c(/C=C/C(C)=C/C=C/C(C)=C/C(=O)O)c(C)c1C` [Acitretin] here?
A: 3.6

Q: What about the drug sensitivity score [2] of the same molecule?
A: 0

Q: And the drug sensitivity score [3]?
A: 0

Q: How did the drug sensitivity score [1] turn out when `CC(=O)c1c(C)c2cnc(Nc3ccc(N4CCNCC4)cn3)nc2n(C2CCCC2)c1=O` [Palbociclib] was run?
A: 0.9

Q: And the drug sensitivity score [2]?
A: 4.3

Q: What about the drug sensitivity score [3] of the same molecule?
A: 0.9

Q: `O=c1ncn2nc(Sc3ccc(F)cc3F)ccc2c1-c1c(Cl)cccc1Cl` [Neflamapimod] was tested. Which drug sensitivity score [1] did it give?
A: 0

Q: What about the drug sensitivity score [2] of the same molecule?
A: 0

Q: And the drug sensitivity score [3]?
A: 0

Q: Which results are given for `O=C(Nc1c[nH]nc1-c1nc2ccc(CN3CCOCC3)cc2[nH]1)NC1CC1` [AT9283]?
A: drug sensitivity score [1]: 0; drug sensitivity score [2]: 6.5; drug sensitivity score [3]: 2

Q: For `NC(=O)c1cccc2cn(-c3ccc([C@@H]4CCCNC4)cc3)nc12` [Niraparib], which drug sensitivity score [1] is on record?
A: 0.7

Q: And the drug sensitivity score [2]?
A: 2.1

Q: What about the drug sensitivity score [3] of the same molecule?
A: 2.3

Q: For `Nc1ccccc1NC(=O)c1ccc(CNC(=O)OCc2cccnc2)cc1` [Entinostat], which drug sensitivity score [1] is on record?
A: 5.4

Q: And the drug sensitivity score [2]?
A: 4.4

Q: What about the drug sensitivity score [3] of the same molecule?
A: 5.5

Q: Which drug sensitivity score [1] does the source give for `C=C1C[C@@H]2[C@H](CC[C@]3(C)C(=O)CC[C@@H]23)[C@@]2(C)C=CC(=O)C=C12` [Exemestane] here?
A: 0

Q: What about the drug sensitivity score [2] of the same molecule?
A: 0

Q: And the drug sensitivity score [3]?
A: 0

Q: What does the source list for `CCC(C)n1ncn(-c2ccc(N3CCN(c4ccc(OCC5COC(Cn6cncn6)(c6ccc(Cl)cc6Cl)O5)cc4)CC3)cc2)c1=O` (stereo unspecified) [Itraconazole]?
A: drug sensitivity score [1]: 7.9; drug sensitivity score [2]: 10.7; drug sensitivity score [3]: 7.7

Q: How did the drug sensitivity score [1] turn out when `COc1cc(OC)cc(N(CCNC(C)C)c2ccc3ncc(-c4cnn(C)c4)nc3c2)c1` [Erdafitinib] was run?
A: 0

Q: And the drug sensitivity score [2]?
A: 0

Q: What about the drug sensitivity score [3] of the same molecule?
A: 0

Q: How did the drug sensitivity score [1] turn out when `Cc1cc(C(C)Nc2ccccc2)c2nc(N3CCOCC3)cc(=O)n2c1` (stereo unspecified) [TGX-221] was run?
A: 0

Q: And the drug sensitivity score [2]?
A: 0.3

Q: What about the drug sensitivity score [3] of the same molecule?
A: 0.4
